Source: patent US11351178B2, “Selective HDAC6 inhibitors” (ITALFARMACO S.P.A., priority 2017, dated 2022)

Key:
[1] = target: T1, HDAC9 (Homo sapiens, UniProt Q9UKV0); test: Enzymatic test HDAC9; assay type: biochemical; conditions: Table 3
T1 construct: purchased BPS 50009
Experimental: (§1) After a period of incubation at 30° C. (incubation times vary for different isoforms and are shown in table 1) 25 μL of solution containing the substrate were added. As substrate, FLUOR DE LYS® deacetylase substrate (Enzo Life Sciences, cat #BML-K1104, FdL), FLUOR DE LYS®-Green substrate (Enzo Life Sciences, cat #BML-K1572 FdL_G) and trifluoroacetyl-L-lysine (Tfal)-2× concentrated solution in 25 mM Tris-HCl, pH 8, 130 mM NaCl 0.05% Tween-20 10% glycerol) were used. Following a reaction period at 30° C.

[2] = target: T2, HDAC10 (Homo sapiens, UniProt Q969S8); test: Enzymatic test HDAC10; assay type: biochemical; conditions: Table 3
T2 construct: purchased BPS 50010
T2 sequence (Q969S8 1-669): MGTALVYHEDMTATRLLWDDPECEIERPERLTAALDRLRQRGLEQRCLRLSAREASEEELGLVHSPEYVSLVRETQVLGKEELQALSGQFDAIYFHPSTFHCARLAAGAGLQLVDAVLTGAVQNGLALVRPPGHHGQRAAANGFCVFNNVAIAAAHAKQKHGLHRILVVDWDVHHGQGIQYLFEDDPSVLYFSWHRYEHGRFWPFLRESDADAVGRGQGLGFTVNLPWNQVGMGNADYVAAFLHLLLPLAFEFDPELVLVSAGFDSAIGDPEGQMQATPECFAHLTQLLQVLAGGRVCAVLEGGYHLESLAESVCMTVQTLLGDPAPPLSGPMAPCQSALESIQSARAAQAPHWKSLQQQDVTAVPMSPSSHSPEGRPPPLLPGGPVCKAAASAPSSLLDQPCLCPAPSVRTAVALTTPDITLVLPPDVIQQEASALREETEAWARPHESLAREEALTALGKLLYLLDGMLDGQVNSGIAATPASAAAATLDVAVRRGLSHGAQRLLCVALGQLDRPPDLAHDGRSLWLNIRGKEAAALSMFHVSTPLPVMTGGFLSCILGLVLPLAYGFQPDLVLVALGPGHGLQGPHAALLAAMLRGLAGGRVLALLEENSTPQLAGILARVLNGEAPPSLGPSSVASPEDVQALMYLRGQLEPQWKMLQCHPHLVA

[3] = target: T3, HDAC11 (Homo sapiens, UniProt Q96DB2); test: Enzymatic test HDAC11; assay type: biochemical; conditions: Table 3
T3 construct: purchased BML SE560
T3 sequence (Q96DB2 1-347): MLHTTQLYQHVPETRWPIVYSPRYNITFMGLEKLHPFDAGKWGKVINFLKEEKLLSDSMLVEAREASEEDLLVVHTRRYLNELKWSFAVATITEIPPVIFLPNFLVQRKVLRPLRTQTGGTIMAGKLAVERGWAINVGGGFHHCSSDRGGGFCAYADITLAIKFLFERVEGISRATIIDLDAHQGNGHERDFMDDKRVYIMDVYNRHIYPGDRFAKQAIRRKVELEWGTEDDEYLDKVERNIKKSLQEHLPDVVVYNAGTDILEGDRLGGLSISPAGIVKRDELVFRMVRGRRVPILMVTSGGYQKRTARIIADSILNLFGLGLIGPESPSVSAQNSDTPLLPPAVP
Experimental: as §1

[4] = target: T4, recombinant human HDAC3 (Homo sapiens, UniProt O15379); test: Enzymatic screening on recombinant human HDAC3; assay type: biochemical; conditions: Table 3
T4 construct: purchased BPS 50003
T4 sequence (O15379 whole entry): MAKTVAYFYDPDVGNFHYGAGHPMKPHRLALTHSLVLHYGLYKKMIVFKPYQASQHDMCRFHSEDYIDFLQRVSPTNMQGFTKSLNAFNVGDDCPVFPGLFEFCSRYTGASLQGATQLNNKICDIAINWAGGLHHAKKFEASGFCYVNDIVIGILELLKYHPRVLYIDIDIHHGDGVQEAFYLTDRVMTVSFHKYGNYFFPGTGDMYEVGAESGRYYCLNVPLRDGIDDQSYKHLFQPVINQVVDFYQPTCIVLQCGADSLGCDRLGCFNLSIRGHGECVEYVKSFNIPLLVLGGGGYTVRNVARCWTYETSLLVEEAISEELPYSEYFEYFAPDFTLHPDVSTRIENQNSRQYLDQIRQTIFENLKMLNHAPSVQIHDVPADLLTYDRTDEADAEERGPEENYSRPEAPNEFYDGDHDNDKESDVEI
T4 sequence (Q9Y618 395-489 partner limits assumed): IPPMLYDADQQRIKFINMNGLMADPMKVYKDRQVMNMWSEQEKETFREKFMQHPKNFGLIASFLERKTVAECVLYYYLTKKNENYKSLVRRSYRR
Experimental: Enzymatic activity on recombinant human HDAC6 and HDAC3 was evaluated (Table 2) for each synthesized compound.
as §1

[5] = test system: peripheral blood mononuclear cells (PBMCs); test: Cytotoxicity on PBMCs (CellTiter 96); assay type: cell-based; conditions: PBMC, 72 h; read-out: PBMC TOXICITY (72 h)
Summary of the method: (§2)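 Mitochondrial-function readout (CellTiter 96 Aqueous One) after 72 h compound exposure, begun 24 h post-seeding. Dose ranges: 697 cells, 1 to 10000 nM at 2×10^4 cells/well; PBMCs, 1.5 to 10000 nM at 5×10^5 cells/well.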

[6] = test system: B 697 promyelocytic cell line; test: Cytotoxicity on 697 cell line (CellTiter 96); assay type: cell-based; conditions: 72 hours incubation, read-out: 697 TOXICITY
Summary of the method: as §2

[7] = target: T5, HDAC5 (Homo sapiens, UniProt Q9UQL6); test: Enzymatic test HDAC5; assay type: biochemical; conditions: Table 3
T5 construct: purchased BPS 50005
T5 sequence (Q9UQL6 656-1122 limits assumed): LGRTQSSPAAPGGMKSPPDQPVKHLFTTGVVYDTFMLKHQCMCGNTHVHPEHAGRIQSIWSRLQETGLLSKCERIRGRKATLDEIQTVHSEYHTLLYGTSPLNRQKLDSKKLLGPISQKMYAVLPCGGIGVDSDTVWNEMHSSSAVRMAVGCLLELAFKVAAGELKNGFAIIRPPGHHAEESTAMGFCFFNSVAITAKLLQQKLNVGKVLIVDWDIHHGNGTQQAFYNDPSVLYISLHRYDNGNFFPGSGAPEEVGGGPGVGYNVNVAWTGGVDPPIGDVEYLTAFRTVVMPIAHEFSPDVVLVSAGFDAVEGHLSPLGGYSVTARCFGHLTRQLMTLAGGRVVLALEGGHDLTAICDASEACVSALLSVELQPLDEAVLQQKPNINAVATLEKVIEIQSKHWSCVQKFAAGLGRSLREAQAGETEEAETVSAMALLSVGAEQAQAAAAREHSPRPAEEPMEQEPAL
Experimental: as §1

[8] = target: T6, HDAC7 (Homo sapiens, UniProt Q8WUI4); test: Enzymatic test HDAC7; assay type: biochemical; conditions: Table 3
T6 construct: purchased BPS 50007
T6 sequence (Q8WUI4 518-952 limits assumed): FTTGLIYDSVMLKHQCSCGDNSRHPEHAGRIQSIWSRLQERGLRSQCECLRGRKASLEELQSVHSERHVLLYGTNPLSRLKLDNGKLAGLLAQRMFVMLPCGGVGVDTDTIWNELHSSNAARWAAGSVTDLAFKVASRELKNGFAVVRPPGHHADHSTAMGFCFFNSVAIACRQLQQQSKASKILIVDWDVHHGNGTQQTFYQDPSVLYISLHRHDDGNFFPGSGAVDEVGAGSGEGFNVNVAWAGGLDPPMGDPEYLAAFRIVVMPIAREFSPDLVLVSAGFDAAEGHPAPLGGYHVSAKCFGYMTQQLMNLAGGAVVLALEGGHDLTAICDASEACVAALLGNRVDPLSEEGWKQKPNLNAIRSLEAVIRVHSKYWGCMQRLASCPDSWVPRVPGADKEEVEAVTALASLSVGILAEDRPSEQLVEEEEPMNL
Experimental: as §1

[9] = target: T7, HDAC2 (Homo sapiens, UniProt Q92769); test: Enzymatic test HDAC2; assay type: biochemical; conditions: Table 3
T7 construct: purchased BPS 50002
T7 sequence (Q92769 whole entry): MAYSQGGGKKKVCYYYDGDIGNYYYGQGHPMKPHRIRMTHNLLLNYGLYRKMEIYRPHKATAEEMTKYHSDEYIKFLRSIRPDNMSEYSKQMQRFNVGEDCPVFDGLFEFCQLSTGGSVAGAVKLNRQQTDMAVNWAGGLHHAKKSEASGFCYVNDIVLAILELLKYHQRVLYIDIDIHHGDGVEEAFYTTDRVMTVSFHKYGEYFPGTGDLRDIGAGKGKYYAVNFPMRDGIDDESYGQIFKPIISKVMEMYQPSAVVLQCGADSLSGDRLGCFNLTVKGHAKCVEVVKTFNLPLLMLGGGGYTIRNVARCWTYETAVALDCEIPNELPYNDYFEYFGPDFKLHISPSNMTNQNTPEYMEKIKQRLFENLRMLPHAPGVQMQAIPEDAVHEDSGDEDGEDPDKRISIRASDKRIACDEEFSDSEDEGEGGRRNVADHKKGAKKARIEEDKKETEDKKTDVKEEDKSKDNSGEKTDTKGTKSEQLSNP

[10] = target: T8, HDAC8 (Homo sapiens, UniProt Q9BY41); test: Enzymatic test HDAC8; assay type: biochemical; conditions: Table 3
T8 construct: purchased BPS 50008
T8 sequence (Q9BY41 1-377): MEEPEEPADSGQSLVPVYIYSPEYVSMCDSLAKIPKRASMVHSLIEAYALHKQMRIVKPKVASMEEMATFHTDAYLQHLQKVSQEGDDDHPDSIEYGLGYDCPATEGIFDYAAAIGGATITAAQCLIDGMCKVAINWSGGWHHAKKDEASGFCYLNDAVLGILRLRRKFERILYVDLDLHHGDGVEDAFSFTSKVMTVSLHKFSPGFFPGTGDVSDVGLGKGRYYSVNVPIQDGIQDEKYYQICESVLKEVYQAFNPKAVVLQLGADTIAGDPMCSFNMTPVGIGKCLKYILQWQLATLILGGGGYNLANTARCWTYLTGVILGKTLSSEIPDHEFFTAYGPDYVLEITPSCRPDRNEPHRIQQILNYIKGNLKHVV

T1 sequence (Q9UKV0 1-1066 isoform Q9UKV0-5): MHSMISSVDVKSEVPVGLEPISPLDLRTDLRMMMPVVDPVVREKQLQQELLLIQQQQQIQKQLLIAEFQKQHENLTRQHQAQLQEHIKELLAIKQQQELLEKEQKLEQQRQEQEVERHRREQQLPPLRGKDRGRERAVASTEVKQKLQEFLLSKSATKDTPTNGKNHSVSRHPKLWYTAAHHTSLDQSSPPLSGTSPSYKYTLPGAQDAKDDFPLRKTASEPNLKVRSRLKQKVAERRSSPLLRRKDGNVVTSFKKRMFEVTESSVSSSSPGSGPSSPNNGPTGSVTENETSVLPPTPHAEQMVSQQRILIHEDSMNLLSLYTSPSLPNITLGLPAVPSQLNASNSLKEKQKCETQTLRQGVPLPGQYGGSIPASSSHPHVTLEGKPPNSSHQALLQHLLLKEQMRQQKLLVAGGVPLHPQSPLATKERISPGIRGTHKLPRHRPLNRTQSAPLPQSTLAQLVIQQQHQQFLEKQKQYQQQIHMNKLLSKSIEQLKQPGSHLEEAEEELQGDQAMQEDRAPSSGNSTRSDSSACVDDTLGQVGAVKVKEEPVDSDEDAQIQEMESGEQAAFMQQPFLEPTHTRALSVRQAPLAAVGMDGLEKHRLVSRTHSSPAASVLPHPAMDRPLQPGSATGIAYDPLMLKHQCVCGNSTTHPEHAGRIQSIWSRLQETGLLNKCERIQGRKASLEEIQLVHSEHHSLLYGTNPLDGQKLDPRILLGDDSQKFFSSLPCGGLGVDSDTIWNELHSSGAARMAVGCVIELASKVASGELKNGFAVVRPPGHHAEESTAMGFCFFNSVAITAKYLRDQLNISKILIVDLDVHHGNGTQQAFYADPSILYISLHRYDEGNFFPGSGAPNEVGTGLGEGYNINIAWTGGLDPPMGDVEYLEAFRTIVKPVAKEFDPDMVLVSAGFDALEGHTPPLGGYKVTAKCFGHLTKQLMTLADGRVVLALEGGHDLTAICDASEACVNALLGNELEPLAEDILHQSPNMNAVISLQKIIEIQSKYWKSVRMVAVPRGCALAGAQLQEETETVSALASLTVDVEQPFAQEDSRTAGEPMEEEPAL

Row | Structure (SMILES) | IC50 [1] [µM] | IC50 [2] [µM] | IC50 [3] [µM] | IC50 [4] [µM] | IC50 [7] [µM] | IC50 [8] [µM] | IC50 [9] [µM] | IC50 [10] [µM] | IC50 [5] [µM] | IC50 [6] [µM]
1 | Cn1c(Sc2c(F)cc(C(=O)NO)cc2F)nnc1-c1cccc2ccccc12 [comp. 2, 3,5-difluoro-N-hydroxy-4-((4-methyl-5-(naphthalen-1-yl)-4H-1,2,4-triazol-3-yl)thio)benzamide] | 0.592 | 14.1 | 8.05 | 8.65 | 1.85 | 1.09 | > 30 | – | > 1 | 6.08
2 | O=C(NO)c1cc(F)c(Cn2nnnc2-c2ccccn2)c(F)c1 [comp. 13, 3,5-difluoro-N-hydroxy-4-((5-(pyridin-2-yl)-1H-tetrazol-1-yl)methyl)benzamide] | 0.64 | 2.68 | 1.47 | 2.49 | 0.512 | 0.623 | 11.4 | 0.49 | – | –
3 | O=C(NO)c1cc(F)c(Cn2nnnc2-c2cccs2)c(F)c1 [comp. 15, 3,5-difluoro-N-hydroxy-4-((5-(thiophen-2-yl)-1H-tetrazol-1-yl)methyl)benzamide] | 0.659 | 8.63 | 4.59 | 6.29 | 0.706 | – | 8.8 | 0.999 | > 10 | 8.72
4 | O=C(NO)c1ccc(Cn2nnc(-c3ccc(C(F)(F)F)cc3)n2)cc1 [comp. 23, 4-[[5-[4-(trifluoromethyl)phenyl]tetrazol-2-yl]methyl]benzenecarbohydroxamic acid] | 2.69 | 1.1 | 0.486 | 0.568 | 4.81 | 6.67 | 2.03 | 2.83 | – | –
5 | Nn1c(Sc2ccc(C(=O)NO)cc2)nnc1-c1ccc(OC(F)F)cc1 [comp. 28, 4-[[4-amino-5-[4-(difluoromethoxy)phenyl]-1,2,4-triazol-3-yl]sulfanyl]benzenecarbohydroxamic acid] | 0.328 | 0.636 | 0.568 | 0.373 | 1.17 | 1.03 | 1.57 | 0.27 | – | –
6 | O=C(NO)c1ccc(Cn2nnc(-c3ccccc3F)n2)cc1 [comp. 33, 4-[[5-(2-fluorophenyl)tetrazol-2-yl]methyl]benzenecarbohydroxamic acid] | 0.948 | 0.441 | 0.225 | 0.138 | 2.36 | 0.608 | 0.81 | 0.413 | – | –

The next lines start with results.

Row | IC50 [1] [µM] | IC50 [2] [µM] | IC50 [3] [µM] | IC50 [4] [µM] | IC50 [7] [µM] | IC50 [8] [µM] | IC50 [9] [µM] | IC50 [10] [µM] | Structure (SMILES) | IC50 [5] [µM] | IC50 [6] [µM]
7 | 0.8 | 0.398 | 0.245 | 0.154 | 1.95 | 0.611 | 0.958 | 0.455 | O=C(NO)c1ccc(Cn2nnc(-c3cccs3)n2)cc1 [comp. 50, 4-[[5-(2-thienyl)tetrazol-2-yl]methyl]benzenecarbohydroxamic acid] | – | –
8 | 2.17 | 0.591 | 0.282 | 0.206 | 3.69 | 1.51 | 1.75 | 1 | O=C(NO)c1ccc(Cc2nnc(-c3ccc(F)cc3F)o2)cc1 [comp. 58, 4-((5-(2,4-difluorophenyl)-1,3,4-oxadiazol-2-yl)methyl)-N-hydroxybenzamide] | – | –
9 | 1.54 | 0.542 | 0.515 | 0.448 | 4.12 | 0.82 | 2.32 | 0.547 | CN(C)S(=O)(=O)c1cccc(-c2nnn(Cc3ccc(C(=O)NO)cc3)n2)c1 [comp. 59, 4-[[5-[3-(dimethylsulfamoyl)phenyl]tetrazol-2-yl]methyl]benzenecarbohydroxamic acid] | – | –
10 | 0.884 | 0.991 | 0.904 | 0.488 | 2.51 | 0.529 | 6.91 | 0.494 | CCN(CC)S(=O)(=O)c1cccc(-c2nnc(Sc3ccc(C(=O)NO)cc3)n2N)c1 [comp. 61, 4-[[4-amino-5-[3-(diethylsulfamoyl)phenyl]-1,2,4-triazol-3-yl]sulfanyl]benzenecarbohydroxamic acid] | – | –
11 | 0.995 | 1.45 | 0.975 | 1.86 | 1.19 | 1.08 | 17.7 | 1.08 | O=C(NO)c1cc(F)c(Cn2nnc(-c3cccs3)n2)c(F)c1 [comp. 65, 3,5-difluoro-4-[[5-(2-thienyl)tetrazol-2-yl]methyl]benzenecarbohydroxamic acid] | – | –
12 | 0.168 | 1.34 | 1.01 | 0.921 | 0.325 | 0.214 | 1.03 | 0.419 | CCN(CC)S(=O)(=O)c1cccc(-c2nnc(Sc3ccc(C(=O)NO)cc3)n2C)c1 [comp. 66, 4-[[5-[3-(diethylsulfamoyl)phenyl]-4-methyl-1,2,4-triazol-3-yl]sulfanyl]benzenecarbohydroxamic acid] | – | –
13 | 0.514 | 1.91 | 0.659 | 1.65 | 0.687 | 1.31 | 6.75 | – | O=C(NO)c1cc(F)c(Cn2nnc(-c3scc4c3OCCO4)n2)c(F)c1 [comp. 79, 4-[[5-(2,3-dihydrothieno[3,4-b][1,4]dioxin-5-yl)tetrazol-2-yl]methyl]-3,5-difluoro-benzenecarbohydroxamic acid] | 3 | 22.2
14 | 0.426 | 5.58 | 2.82 | 1.87 | 1.28 | 0.764 | 13.8 | 0.548 | CN(C)c1cccc(-c2nnc(Sc3c(F)cc(C(=O)NO)cc3F)n2C)c1 [comp. 80, 4-[[5-[3-(dimethylamino)phenyl]-4-methyl-1,2,4-triazol-3-yl]sulfanyl]-3,5-difluoro-benzenecarbohydroxamic acid] | – | –
